Measurements from patent publication US20220160762A1, “ENGINEERED IMMUNE CELLS” (NATIONAL UNIVERSITY OF SINGAPORE, priority 2019, published 2022).
pIC50: −log10 of the molar value.

Experiments:
CAR-Jurkat = test: T cell stimulation assay with kinase inhibitor, IL-2 ELISA readout; assay type: cell-based, human; conditions: for pIC50: Homo sapiens, T-cell, CAR-Jurkat stimulated with CHO-L2, 18 hrs, read-out: IC50 of inhibitor on IL-2 production
Experimental: (§1) Artificial antigen presenting CHO cells (APC-CHO) were seeded onto a 96 well flat plate at 2-3×10^4 per well one day before. For APC-CHO requiring peptide pulsing, peptide was added at 4 uM for 3 hrs, and then washed away before CAR-T or TCR-T cells were added. Each CAR-T cell or TCR T cell sample was counted and suspended at a concentration of 10^6 per ml in culturing RPMI medium. 200 ul per well of suspended cell solution was then added into APC-CHO pre-seeded plate. For inhibitor experiments, inhibitor was added accordingly into the cell mixture. Technical triplicates were performed for all experiments. The cells were incubated at 37° C., 5% CO2 for 18 hrs. After incubation, supernatant was collected for human IL-2 ELISA assay, which was performed according to the manufacturer's protocol (Invitrogen). The T cell pellets were resuspended for surface staining or used for another round of stimulation by repeating the method described above.

TCR-Jurkat = test: as above; assay type: cell-based; conditions: Homo sapiens, TCR-Jurkat stimulated with CHO-L2, 18 hrs, read-out: IC50 of inhibitor on IL-2 production
Experimental: as §1

CAR-Jcam = test: T cell stimulation assay with SFK inhibitor, IL-2 ELISA readout; assay type: cell-based, human; conditions: CAR-Jcam (LCK-deficient)
Experimental: as §1

pIC50 (CAR-Jurkat) | pIC50 (TCR-Jurkat) | Structure (SMILES) | IL-2 production after inhibitor was added (CAR-Jurkat; CAR-Jurkat) | IL-2 production after inhibitor was added (CAR-Jcam)
7.33 | 8.18 | COc1cc(-c2nn([C@H]3CC[C@H](N4CCN(C(C)=O)CC4)CC3)c3ncnc(N)c23)ccc1NC(=O)c1cc2ccccc2n1C [A770041] | – | –
– | – | CC(C)(C)n1nc(-c2ccc(Cl)cc2)c2c(N)ncnc21 [PP2] | entirely quenched | entirely quenched
5.42 | 5.25 | CN(C)S(=O)(=O)c1ccc2c(c1)/C(=C/c1cc3c([nH]1)CCCC3)C(=O)N2 [SU6656] | – | –
